# From paper PMC4729137, “Functional analysis of androgen receptor mutations that confer anti-androgen resistance identified in circulating cell-free DNA from prostate cancer patients” (Genome Biology, 2016)
# Substitutions are numbered along the chain they refer to.
# Key:
# H875Y-AR = molecular target: T1, H875Y-AR (Homo sapiens, UniProt P10275, H875Y); experiment: cell-based
# T1 sequence (P10275 1-920 H875Y): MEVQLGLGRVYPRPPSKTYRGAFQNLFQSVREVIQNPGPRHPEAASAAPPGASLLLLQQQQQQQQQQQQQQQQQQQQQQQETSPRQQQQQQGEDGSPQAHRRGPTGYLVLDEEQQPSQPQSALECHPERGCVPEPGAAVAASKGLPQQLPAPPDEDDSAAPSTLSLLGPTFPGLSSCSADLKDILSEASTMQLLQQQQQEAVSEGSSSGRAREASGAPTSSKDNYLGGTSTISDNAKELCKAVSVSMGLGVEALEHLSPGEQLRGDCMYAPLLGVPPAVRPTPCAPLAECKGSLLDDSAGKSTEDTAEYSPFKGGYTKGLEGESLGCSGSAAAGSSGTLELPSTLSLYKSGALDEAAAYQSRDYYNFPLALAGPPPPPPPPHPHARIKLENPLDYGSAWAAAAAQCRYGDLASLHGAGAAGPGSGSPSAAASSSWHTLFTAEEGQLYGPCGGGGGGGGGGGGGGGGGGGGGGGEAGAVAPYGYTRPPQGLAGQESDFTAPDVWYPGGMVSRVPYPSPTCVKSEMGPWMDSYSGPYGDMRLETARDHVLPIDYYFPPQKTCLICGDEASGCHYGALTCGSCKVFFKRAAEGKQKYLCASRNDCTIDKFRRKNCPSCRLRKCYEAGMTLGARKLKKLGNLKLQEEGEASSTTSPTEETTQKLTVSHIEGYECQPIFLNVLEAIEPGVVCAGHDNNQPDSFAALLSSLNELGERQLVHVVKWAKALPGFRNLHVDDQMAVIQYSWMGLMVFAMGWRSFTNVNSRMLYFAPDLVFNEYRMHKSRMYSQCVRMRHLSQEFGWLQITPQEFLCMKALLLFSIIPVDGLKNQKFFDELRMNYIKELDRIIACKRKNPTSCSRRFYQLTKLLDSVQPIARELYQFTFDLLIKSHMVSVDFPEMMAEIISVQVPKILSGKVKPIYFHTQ
# T878A-AR = molecular target: T2, T878A-AR (Homo sapiens, UniProt P10275, T878A); type: cell-based; parameters: Full-length human AR (WT-AR) was encoded on a pcDNA3.1 expression plasmid; expressed in transfected cells; host or cells: PC3 cells; details: AR mutant T878A; transfected PC3 cells; 0.1 nM R1881; drug 0 to 50 μM
# T2 sequence (P10275 1-920 T878A): T1 sequence (P10275 1-920 H875Y) with Y875H, T878A
# Source text: Full-length human AR (WT-AR) was encoded on a pcDNA3.1 expression plasmid (Life technologies). The LBD point mutations (single and multiple) were generated using the QuikChange II Site-Directed Mutagenesis Kit (Agilent Technologies) as per manufacturer’s instructions using WT-AR as the template. The mutagenic oligonucleotide primers were designed individually with the desired mutation in the middle of the primer with approximately 10 to 15 bases of correct sequence on both sides.
# PC3 cells were seeded and transfected as described above. […] A non-stimulated/no R1881 control was used. After 24 h, cells were lysed and AR-dependent luciferase activity was quantified. Each concentration was assayed in quadruplicate n = 4, with a biological replicate of n = 3. Results were averaged and normalized by expressing them as a percentage of WT AR activity.
Agonist response to treatment (T878A-AR),Compound,EC50 (H875Y-AR) [nM]
–,C[C@]12CCC(=O)C=C1CC[C@@H]1[C@@H]2[C@@H](O)C[C@@]2(C)[C@H]1CC[C@]2(O)C(=O)CO [hydrocortisone],> 500
Partial,"CC(C)(O)C(=O)Nc1ccc([N+](=O)[O-])c(C(F)(F)F)c1 [Hydroxyflutamide, hydroxyflutamide]",–
